Test results taken from PubChem BioAssay AID1259407 (Chemical Carcinogenesis Research Information System (CCRIS), 2018).
Active and inactive are the calls of the source. The rule behind the calls is not given here.

System: CCRIS mutagenicity, Ames/micronucleus/aberration tests
Assay: CCRIS mutagenicity studies
[1] = Test System: AMES SALMONELLA TYPHIMURIUM, Strain/Indicator: TA100, Metabolic Activation: S-9, Method: STANDARD PLATE
[2] = Test System: AMES SALMONELLA TYPHIMURIUM, Strain/Indicator: TA98, Metabolic Activation: NONE, Method: STANDARD PLATE
[3] = Test System: AMES SALMONELLA TYPHIMURIUM, Strain/Indicator: TA100, Metabolic Activation: NONE, Method: STANDARD PLATE
[4] = Test System: AMES SALMONELLA TYPHIMURIUM, Strain/Indicator: TA102, Metabolic Activation: NONE, Method: STANDARD PLATE
[5] = Test System: AMES SALMONELLA TYPHIMURIUM, Strain/Indicator: TA98, Metabolic Activation: RAT, LIVER, S-9, AROCLOR 1254, Method: STANDARD PLATE
[6] = Test System: AMES SALMONELLA TYPHIMURIUM, Strain/Indicator: TA100, Metabolic Activation: RAT, LIVER, S-9, AROCLOR 1254, Method: STANDARD PLATE
[7] = Test System: AMES SALMONELLA TYPHIMURIUM, Strain/Indicator: TA1537, Metabolic Activation: NONE, Method: STANDARD PLATE
[8] = Test System: AMES SALMONELLA TYPHIMURIUM, Strain/Indicator: TA1538, Metabolic Activation: NONE, Method: STANDARD PLATE

## N#Cc1ccc(/C=C/c2ccc([N+](=O)[O-])cc2)cc1
Test System: AMES SALMONELLA TYPHIMURIUM, Strain/Indicator: TA98 (NR), Metabolic Activation: NONE, Method: STANDARD PLATE
  mutagenic call: active; positive
Test System: AMES SALMONELLA TYPHIMURIUM, Strain/Indicator: TA98 (NR), Metabolic Activation: S-9, Method: STANDARD PLATE
  mutagenic call: active; positive
Test System: AMES SALMONELLA TYPHIMURIUM, Strain/Indicator: TA98, Metabolic Activation: RAT, LIVER, S-9, AROCLOR, Method: STANDARD PLATE
  mutagenic call: active; positive
Test System: AMES SALMONELLA TYPHIMURIUM, Strain/Indicator: TA98, Metabolic Activation: S-9, Method: STANDARD PLATE
  mutagenic call: active; positive
Test System: AMES SALMONELLA TYPHIMURIUM, Strain/Indicator: TA100 (NR), Metabolic Activation: NONE, Method: STANDARD PLATE
  mutagenic call: inactive; negative
Test System: AMES SALMONELLA TYPHIMURIUM, Strain/Indicator: TA100(NR), Metabolic Activation: S-9, Method: STANDARD PLATE
  mutagenic call: inactive; negative
Test System: AMES SALMONELLA TYPHIMURIUM, Strain/Indicator: TA100, Metabolic Activation: RAT, LIVER, S-9, AROCLOR, Method: STANDARD PLATE
  mutagenic call: active; positive
[1]
  mutagenic call: active; positive

## OOC1CCCc2ccccc21 (stereo not drawn)
[2]
  mutagenic call: inactive; negative
[3]
  mutagenic call: active; positive
[4]
  mutagenic call: inactive; negative

## C=C(C)C(=O)OCCOC1C=CC2C3CCC(C3)C12 (stereo not drawn)
Test System: CHINESE HAMSTER OVARY, Strain/Indicator: CHO-K1-BH4 (HGPRT), Metabolic Activation: NONE, Method: MONOLAYER
  mutagenic call: inactive; negative
Test System: CHINESE HAMSTER OVARY, Strain/Indicator: CHO-K1-BH4 (HGPRT), Metabolic Activation: NONE, Method: SUSPENSION/PLATE
  mutagenic call: active; positive

## Clc1ccc(N=Nc2ccc(Cl)c(Cl)c2)cc1Cl
Test System: AMES SALMONELLA TYPHIMURIUM, Strain/Indicator: TA97, Metabolic Activation: NONE, Method: STANDARD PLATE
  mutagenic call: inactive; negative
Test System: AMES SALMONELLA TYPHIMURIUM, Strain/Indicator: TA97, Metabolic Activation: RAT, LIVER, S-9, AROCLOR 1254, Method: STANDARD PLATE
  mutagenic call: inactive; negative
[2]
  mutagenic call: inactive; negative
[5]
  mutagenic call: inactive; negative
[3]
  mutagenic call: inactive; negative
[6]
  mutagenic call: inactive; negative
Test System: AMES SALMONELLA TYPHIMURIUM, Strain/Indicator: TA104, Metabolic Activation: NONE, Method: STANDARD PLATE
  mutagenic call: inactive; negative
Test System: AMES SALMONELLA TYPHIMURIUM, Strain/Indicator: TA104, Metabolic Activation: RAT, LIVER, S-9, AROCLOR 1254, Method: STANDARD PLATE
  mutagenic call: inactive; negative
Test System: CHINESE HAMSTER OVARY, Strain/Indicator: CHO-K1-BH4 (HGPRT), Metabolic Activation: NONE
  mutagenic call: inactive; negative
Test System: CHINESE HAMSTER OVARY, Strain/Indicator: CHO-K1-BH4 (HGPRT), Metabolic Activation: RAT, LIVER, S-9, AROCLOR 1254
  mutagenic call: inactive; negative
Test System: UDS RODENT HEPATOCYTES, Strain/Indicator: THY INCORP (NON-S-PHASE), Method: LIQUID SCINTILLATION COUNTING
  mutagenic call: active; positive

## CC(CN1CC(=O)NC(=O)C1)N1CC(=O)NC(=O)C1 (stereo not drawn)
[2]
  mutagenic call: inactive; negative
[5]
  mutagenic call: inactive; negative
[3]
  mutagenic call: inactive; negative
[6]
  mutagenic call: inactive; negative
Test System: AMES SALMONELLA TYPHIMURIUM, Strain/Indicator: TA1535, Metabolic Activation: NONE, Method: STANDARD PLATE
  mutagenic call: inactive; negative
Test System: AMES SALMONELLA TYPHIMURIUM, Strain/Indicator: TA1535, Metabolic Activation: RAT, LIVER, S-9, AROCLOR 1254, Method: STANDARD PLATE
  mutagenic call: inactive; negative
[7]
  mutagenic call: inactive; negative
Test System: AMES SALMONELLA TYPHIMURIUM, Strain/Indicator: TA1537, Metabolic Activation: RAT, LIVER, S-9, AROCLOR 1254, Method: STANDARD PLATE
  mutagenic call: inactive; negative
[8]
  mutagenic call: inactive; negative
Test System: AMES SALMONELLA TYPHIMURIUM, Strain/Indicator: TA1538, Metabolic Activation: RAT, LIVER, S-9, AROCLOR 1254, Method: STANDARD PLATE
  mutagenic call: inactive; negative
Test System: CHINESE HAMSTER V-79, Strain/Indicator: V-79/8-AZAGUANINE, Metabolic Activation: NONE, Method: STANDARD PLATE
  mutagenic call: active; positive
Test System: MOUSE LYMPHOMA, Strain/Indicator: L5178Y (TK+/TK-), Metabolic Activation: NONE, Method: SUSPENSION/PLATE
  mutagenic call: active; positive

## CC1=C(O)C(=O)CO1
Test System: AMES SALMONELLA TYPHIMURIUM, Strain/Indicator: TA100, Metabolic Activation: NONE, Method: PREINCUBATION
  mutagenic call: active; positive
Test System: AMES SALMONELLA TYPHIMURIUM, Strain/Indicator: TA100, Metabolic Activation: RAT, LIVER, S-9, PHENOBARBITAL AND 5,6-BENZOFLAVONE, Method: PREINCUBATION
  mutagenic call: active; positive

## CN1CCN(c2ccc3nc(-c4ccc5nc(-c6ccc(O)cc6)[nH]c5c4)[nH]c3c2)CC1
[2]
  mutagenic call: inactive; negative
[3]
  mutagenic call: inactive; negative
[4]
  mutagenic call: inactive; negative

## CC(C)C(=O)Nc1snc2ccccc12
[3]
  mutagenic call: inactive; negative
[1]
  mutagenic call: inactive; negative
[7]
  mutagenic call: inactive; negative
Test System: AMES SALMONELLA TYPHIMURIUM, Strain/Indicator: TA1537, Metabolic Activation: S-9, Method: STANDARD PLATE
  mutagenic call: inactive; negative

## COc1c2c(cc3oc4c(CCC(C)(C)O)ccc(O)c4c(=O)c13)O[C@H]1OC=C[C@@H]21
[2]
  mutagenic call: active; positive
[5]
  mutagenic call: active; positive
[3]
  mutagenic call: inactive; negative
[6]
  mutagenic call: active; positive

## O=[N+]([O-])c1cccc2[nH]c3ccccc3c12
[2]
  mutagenic call: active; positive
Test System: AMES SALMONELLA TYPHIMURIUM, Strain/Indicator: TA98, Metabolic Activation: RAT, LIVER, S-9, PHENOBARBITAL, Method: STANDARD PLATE
  mutagenic call: active; positive
[7]
  mutagenic call: inactive; negative
Test System: AMES SALMONELLA TYPHIMURIUM, Strain/Indicator: TA1537, Metabolic Activation: RAT, LIVER, S-9, PHENOBARBITAL, Method: STANDARD PLATE
  mutagenic call: inactive; negative
[8]
  mutagenic call: active; positive
Test System: AMES SALMONELLA TYPHIMURIUM, Strain/Indicator: TA1538, Metabolic Activation: RAT, LIVER, S-9, PHENOBARBITAL, Method: STANDARD PLATE
  mutagenic call: active; positive
Test System: AMES SALMONELLA TYPHIMURIUM, Strain/Indicator: TA1977, Metabolic Activation: NONE, Method: STANDARD PLATE
  mutagenic call: inactive; negative
Test System: AMES SALMONELLA TYPHIMURIUM, Strain/Indicator: TA1977, Metabolic Activation: RAT, LIVER, S-9, PHENOBARBITAL, Method: STANDARD PLATE
  mutagenic call: inactive; negative

## NC(=O)C1(C(N)=O)OC1C(=O)c1ccccc1 (stereo not drawn)
Test System: AMES SALMONELLA TYPHIMURIUM, Strain/Indicator: TA98, Metabolic Activation: NONE, Method: DISK ASSAY
  mutagenic call: inactive; negative
[2]
  mutagenic call: inactive; negative
Test System: AMES SALMONELLA TYPHIMURIUM, Strain/Indicator: TA98, Metabolic Activation: RAT, LIVER, S-9, AROCLOR 1254, Method: DISK ASSAY
  mutagenic call: inactive; negative
[5]
  mutagenic call: active; positive
[3]
  mutagenic call: inactive; negative
[6]
  mutagenic call: inactive; negative
